Results from patent publication US20240208912A1 (Mirati Therapeutics, Inc., priority 2021, published 2024).
Where two headings read alike, the source gives them in different places.

Tests used:
[1] = system: PRMT5-dependent Symmetric Di-methyl Arginine signal in HCT116 homozygous MTAP Knockout cells; test: SYM11 In-Cell Western in HCT116 homozygous MTAP knockout cells; assay type: cell-based
Description: HCT116 cells were genetically engineered to knock out the function of both MTAP alleles using a CRISPR/Cas9 system and an sgRNA targeting the MTAP gene. Following Cas9/MTAP sgRNA transduction, clones were screened to confirm that each allele of the MTAP gene had been inactivated (i.e., homozygous MTAP knock out) creating an MTAP-deficient cell.
(§1) Control samples were analyzed in parallel.
(§2) Briefly, on Day 0, 2,000 HCT116 parental or HCT116 homozygous MTAP knockout cells were seeded in 96 well plates in McCoy's 5A supplemented with 10% fetal bovine serum and pen/strep and the cells were incubated overnight at 37° C. plus 5% CO2. The following day, cells were treated with DMSO vehicle control or a dose response of PRMT5 inhibitors, and incubated at 37° C. plus 5% CO^2 for four days.
(§3) After 4 days of treatment, the cells were fixed by adding 50 μl of 4% paraformaldehyde solution to each well and the cells were incubated for 20 min at room temperature. The paraformaldehyde solution was removed, 150 μl of ice-cold methanol was added and the plate was placed −20° C. for 10 minutes. The methanol was removed, 150 μl of Odyssey Blocking buffer+0.05% Tween20 was added and the plate was incubated at room temperature with shaking for one hour.
(§4) The primary SYM11 antibody solution was removed by aspiration and the wells were washed three consecutive times with phosphate buffered saline containing 0.1% Tween-20 (PBST).
(§5) The secondary antibody solution was removed by aspiration and the wells were washed three consecutive times with PBST.
(§6) The SYM11 signal and the DRAQ5 signal were quantified using a Li-Cor Odyssey machine reading at […], respectively. The SYM11/DRAQ5 ratio was used to calculate the inhibition of Symmetric Dimethyl Arginine as percent of DMSO control.

[2] = system: HCT116 homozygous MTAP knockout cells; test: Proliferation assay (CellTiter-Glo, 10 days) in HCT116 homozygous MTAP knockout cells; assay type: cell-based; conditions: CellTiter-Glo after 10 days of treatment, read-out: Proliferation IC50 (nM) HCT116 MTAP_KO
How it was run: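 MTAP-null HCT116 clone made by CRISPR/Cas9 knockout of both alleles, tested beside parental cells. Cells dosed the day after seeding, split 1:10 on day 6 into fresh medium with the same compound level, and read on day 11 by CellTiter-Glo. IC50 taken after 10 days of exposure.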

[3] = system: PRMT5-dependent Symmetric Di-methyl Arginine signal in HCT116 parental cells; test: SYM11 In-Cell Western in HCT116 parental cells; assay type: cell-based; conditions: Homo sapiens, HCT-116, 96 h, read-out: In-cell-Western (SYM11) IC50 (nM) HCT216 parental
Description: as §1, §2, §3, §4, §5, §6

PRMT5/MEP50 complex = target: T1, PRMT5/MEP50 complex (Homo sapiens, UniProt O14744); test: PRMT5:MEP50 HotSpot Assay (full-length histone H2A substrate, plus and minus MTA); assay type: biochemical; conditions: IC50 + 2 μM MTA, in the presence of 2 μM MTA
T1 construct: purchased Reaction Biology Corporation
How it was run: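 Radiometric HotSpot format using recombinant full-length histone H2A as substrate, run with and without MTA. Reactions were stopped and spotted onto filter paper. Tritiated H2A was quantified by scintillation counting.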

[4] = Homo sapiens, HCT-116, 96 h, 4 days of treatment, SYM11/DRAQ5 ratio as percent of DMSO control, read-out: In-cell-Western (SYM11) IC50 (nM) HCT116 MTAP_KO
[5] = 4 days of treatment, SYM11/DRAQ5 ratio as percent of DMSO control, read-out: In-cell-Western (SYM11) IC50 (nM) HCT116 MTAP_KO

T1 sequence (O14744 2-637 limits assumed): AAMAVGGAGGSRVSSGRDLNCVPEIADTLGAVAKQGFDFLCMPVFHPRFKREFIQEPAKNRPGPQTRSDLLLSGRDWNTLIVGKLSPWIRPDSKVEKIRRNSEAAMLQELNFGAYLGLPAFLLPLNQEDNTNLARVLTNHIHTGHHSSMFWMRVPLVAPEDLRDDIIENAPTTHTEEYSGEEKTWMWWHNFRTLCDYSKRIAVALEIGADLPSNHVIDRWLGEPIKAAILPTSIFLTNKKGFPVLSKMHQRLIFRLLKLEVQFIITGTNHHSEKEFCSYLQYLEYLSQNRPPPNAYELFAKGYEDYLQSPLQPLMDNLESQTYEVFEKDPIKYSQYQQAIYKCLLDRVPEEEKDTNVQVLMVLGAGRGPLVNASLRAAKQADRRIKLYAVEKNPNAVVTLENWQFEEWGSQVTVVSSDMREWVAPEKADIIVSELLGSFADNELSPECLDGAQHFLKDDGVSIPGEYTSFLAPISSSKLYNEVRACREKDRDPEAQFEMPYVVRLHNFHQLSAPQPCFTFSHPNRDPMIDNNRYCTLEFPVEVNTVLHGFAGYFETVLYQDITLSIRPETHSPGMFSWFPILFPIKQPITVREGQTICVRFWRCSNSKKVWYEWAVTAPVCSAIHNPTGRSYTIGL
T1 sequence (Q9BQA1 2-342 partner limits assumed): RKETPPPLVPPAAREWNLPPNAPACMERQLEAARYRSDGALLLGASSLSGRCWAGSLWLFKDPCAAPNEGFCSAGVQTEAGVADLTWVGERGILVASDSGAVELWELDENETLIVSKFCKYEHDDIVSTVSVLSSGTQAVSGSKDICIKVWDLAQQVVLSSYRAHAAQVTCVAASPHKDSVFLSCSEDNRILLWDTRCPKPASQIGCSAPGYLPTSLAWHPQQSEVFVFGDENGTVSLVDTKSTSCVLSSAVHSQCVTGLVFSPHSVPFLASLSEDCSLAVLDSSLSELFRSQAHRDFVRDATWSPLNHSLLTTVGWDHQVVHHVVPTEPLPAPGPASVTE

SMILES | IC50 [1, 4] | IC50 ([2]; Homo sapiens, HCT-116, 240 h) | IC50 (PRMT5/MEP50 complex) | IC50 [1, 5] | IC50 [2] | IC50 ([3]; HCT116 parental cells, 4 days of treatment, SYM11/DRAQ5 ratio as percent of DMSO control) | IC50 ([1]; read-out: In-cell-Western (SYM11) IC50 (nM) HCT116 MTAP_KO, 4 days of treatment, SYM11/DRAQ5 ratio as percent of DMSO control) | IC50 [3]
COCc1cc(-c2cnn(C)c2-c2sc3ccccc3c2C#N)cc2c(CN)n[nH]c(=O)c12 [Example 15-5, 2-[4-[4-(aminomethyl)-8-(methoxymethyl)-1-oxo-2H-phthalazin-6-yl]-2-methyl-pyrazol-3-yl]benzothiophene-3-carbonitrile] | 5 nM | 23 nM |  |  |  | 595 nM |  | 
Cn1ncc(-c2ccc3c(=O)[nH]nc(CN)c3c2)c1-c1c(C#N)sc2ccccc12 [Example 4-266, 3-[4-[4-(aminomethyl)-1-oxo-2H-phthalazin-6-yl]-2-methyl-pyrazol-3-yl]benzothiophene-2-carbonitrile] | 324 nM | 312 nM | 507 nM |  |  |  |  | 
CCn1cccc(-c2c(-c3ccc4c(=O)[nH]nc(CN)c4c3)cnn2C)c1=O [Example 4-255, 4-(aminomethyl)-6-(5-(1-ethy1-2-oxo-1,2-dihydropyridin-3-yl)-1-methyl-1H-pyrazol-4-yl)phthalazin-1(2H)-one] | 955 nM | 1630 nM | 9620 nM |  |  |  |  | 
Cn1ncc(-c2ccc3c(=O)[nH]nc(CN)c3c2)c1-c1c(F)c(Cl)cc(OC2CC2)c1C#N [Example 4-230, 2-(4-(4-(aminomethyl)-1-oxo-1,2-dihydrophthalazin-6-yl)-1-methyl-1H-pyrazol-5-yl)-4-chloro-6-cyclopropoxy-3-fluorobenzonitrile] |  |  |  |  |  |  | 6 nM | > 1000 nM
Cn1ncc(-c2ccc3c(=O)[nH]nc(CN)c3c2)c1-c1sc2ccc(Cl)cc2c1C#N [Example 4-262, 2-[4-[4-(aminomethyl)-1-oxo-2H-phthalazin-6-yl]-2-methyl-pyrazol-3-yl]-5-chloro-benzothiophene-3-carbonitrile] | 98 nM | 281 nM | 108 nM |  |  |  |  | 
Cn1ncc(-c2cc(Cl)c3c(=O)[nH]nc(CN)c3c2)c1-c1sc2ccccc2c1C#N [Example 10-22, 2-(4-(4-(aminomethyl)-8-chloro-1-oxo-1,2-dihydrophthalazin-6-yl)-1-methyl-1H-pyrazol-5-yl)benzo[b]thiophene-3-carbonitrile] | 17 nM | 52 nM | 86.8 nM |  |  |  |  | 

More lines, main results first:

IC50 [1, 4] | IC50 ([2]; Homo sapiens, HCT-116, 240 h) | IC50 (PRMT5/MEP50 complex) | IC50 [1, 5] | IC50 [2] | SMILES | IC50 ([3]; HCT116 parental cells, 4 days of treatment, SYM11/DRAQ5 ratio as percent of DMSO control) | IC50 ([1]; read-out: In-cell-Western (SYM11) IC50 (nM) HCT116 MTAP_KO, 4 days of treatment, SYM11/DRAQ5 ratio as percent of DMSO control) | IC50 [3]
 |  | 4.55 nM | 6 nM | 7 nM | Cc1c(F)c(-c2c(-c3cc(C)c4c(=O)[nH]nc(CN)c4c3)cnn2C)c(C#N)c2ccccc12 (single isomer, unassigned) [Example 16-42, (M)-2-[4-[4-(aminomethyl)-8-methyl-1-oxo-2H-phthalazin-6-yl]-2-methyl-pyrazol-3-yl]-3-fluoro-4-methyl-naphthalene-1-carbonitrile] |  |  | 
 |  | 29.1 nM | 13 nM | 19 nM | Cc1cc(-c2cnn(C)c2-c2c(C#N)cc3ccccc3c2Cl)cc2c(CN)n[nH]c(=O)c12 (single isomer, unassigned) [Example 16-52, (M)-3-[4-[4-(aminomethyl)-8-methyl-1-oxo-2H-phthalazin-6-yl]-2-methyl-pyrazol-3-yl]-4-chloro-naphthalene-2-carbonitrile] |  |  | 
> 1000 nM | 2870 nM | 2930 nM |  |  | Cn1ncc(-c2ccc3c(=O)[nH]cc(CN)c3c2)c1-c1ccc2ccccc2c1C#N [Example 18-2, 2-[4-[4-(aminomethyl)-1-oxo-2H-isoquinolin-6-yl]-2-methyl-pyrazol-3-yl]naphthalene-1-carbonitrile] |  |  | 
 |  | 2000 nM | 656 nM | 1300 nM | Cc1cc(OC2CC2)c(C#N)c(-c2c(-c3cc(C)c4c(=O)[nH]nc(CN)c4c3)cnn2C)c1F (single isomer, unassigned) [Example 16-43, (P)-2-(4-(4-(aminomethyl)-8-methyl-1-oxo-1,2-dihydrophthalazin-6-yl)-1-methyl-1H-pyrazol-5-yl)-6-cyclopropoxy-3-fluoro-4-methylbenzonitrile] |  |  | 
11 nM |  | 304 nM |  | 51 nM | Cc1cc(-c2cnn(C)c2-c2c(F)ccc(OC3CC3)c2C#N)cc2c(CN)n[nH]c(=O)c12 (atropisomer, axis not shown; (P)) [Example 16-47, (P)-2-[4-[4-(aminomethyl)-8-methyl-1-oxo-2H-phthalazin-6-yl]-2-methyl-pyrazol-3-yl]-6-(cyclopropoxy)-3-fluoro-benzonitrile] |  |  | 
 |  | 994 nM | 272 nM | 2850 nM | Cn1ncc(-c2ccc3c(=O)[nH]nc(CN)c3c2)c1-c1c(C#N)cc2ccccc2c1Cl (single isomer, unassigned) [Example 16-5] |  |  | 
 |  | 69.5 nM | 13 nM | 20 nM | Cc1cc(OC2CC2)c(C#N)c(-c2c(-c3cc(C)c4c(=O)[nH]nc(CN)c4c3)cnn2C)c1F (single isomer, unassigned) [Example 16-44, (M)-2-(4-(4-(aminomethyl)-8-methyl-1-oxo-1,2-dihydrophthalazin-6-yl)-1-methyl-1H-pyrazol-5-yl)-6-cyclopropoxy-3-fluoro-4-methylbenzonitrile] |  |  | 
 |  | 248 nM | 93 nM | 307 nM | Cn1ncc(-c2ccc3c(=O)[nH]nc(CN)c3c2)c1-c1c(F)c(Cl)c2ccccc2c1C#N (single isomer, unassigned) [Example 16-9, (P)-2-[4-[4-(aminomethyl)-1-oxo-2H-phthalazin-6-yl]-2-methyl-pyrazol-3-yl]-4-chloro-3-fluoro-naphthalene-1-carbonitrile] |  |  | 
 |  | 95 nM | 17 nM | 33 nM | Cc1cc(-c2cnn(C)c2-c2c(F)cc3ccccc3c2C#N)cc2c(CN)n[nH]c(=O)c12 (single isomer, unassigned) [Example 16-15, (P)-2-[4-[4-(aminomethyl)-8-methyl-1-oxo-2H-phthalazin-6-yl]-2-methyl-pyrazol-3-yl]-3-fluoro-naphthalene-1-carbonitrile] |  |  | 
 |  | 260 nM | 57 nM | 77 nM | Cn1ncc(-c2cc(Cl)c3c(=O)[nH]nc(CN)c3c2)c1-c1c(F)ccc(OC2CC2)c1C#N (atropisomer, axis not shown; (P)) [Example 16-55, (P)-2-[4-[4-(aminomethyl)-8-chloro-1-oxo-2H-phthalazin-6-yl]-2-methyl-pyrazol-3-yl]-6-(cyclopropoxy)-3-fluoro-benzonitrile] |  |  | 
 |  | 13.6 nM | 6 nM | 6 nM | Cc1cc(-c2cnn(C)c2-c2c(F)cc3ccccc3c2C#N)cc2c(CN)n[nH]c(=O)c12 (single isomer, unassigned) [Example 16-16, (M)-2-[4-[4-(aminomethyl)-8-methyl-1-oxo-2H-phthalazin-6-yl]-2-methyl-pyrazol-3-yl]-3-fluoro-naphthalene-1-carbonitrile] |  |  | 
 |  | 113 nM | 9 nM | 22 nM | Cn1ncc(-c2cc(Cl)c3c(=O)[nH]nc(CN)c3c2)c1-c1c(F)ccc(OC2CC2)c1C#N (atropisomer, axis not shown; (M)) [Example 16-56, (M)-2-[4-[4-(aminomethyl)-8-chloro-1-oxo-2H-phthalazin-6-yl]-2-methyl-pyrazol-3-yl]-6-(cyclopropoxy)-3-fluoro-benzonitrile] |  |  | 
 |  | 1970 nM | 282 nM | 798 nM | Cc1cc(-c2cnn(C)c2-c2c(F)c(Cl)cc(OC3CC3)c2C#N)cc2c(CN)n[nH]c(=O)c12 (single isomer, unassigned) [Example 16-45, (P)-2-[4-[4-(aminomethyl)-8-methyl-1-oxo-2H-phthalazin-6-yl]-2-methyl-pyrazol-3-yl]-4-chloro-6-(cyclopropoxy)-3-fluoro-benzonitrile] |  |  | 
